Activity calls are given as the source filed them. No cut-off for these calls is given here.
What was measured:
[1] = target: T1, Oxysterols receptor LXR-beta (Mus musculus, UniProt Q60644); experiment: Agonist activity at mouse LXRbeta expressed in HEK293 cells co-expressing CMX-beta-galactosidase incubated for 16 hrs by luciferase reporter gene assay; type: cell-based
T1 sequence (Q60644 whole entry): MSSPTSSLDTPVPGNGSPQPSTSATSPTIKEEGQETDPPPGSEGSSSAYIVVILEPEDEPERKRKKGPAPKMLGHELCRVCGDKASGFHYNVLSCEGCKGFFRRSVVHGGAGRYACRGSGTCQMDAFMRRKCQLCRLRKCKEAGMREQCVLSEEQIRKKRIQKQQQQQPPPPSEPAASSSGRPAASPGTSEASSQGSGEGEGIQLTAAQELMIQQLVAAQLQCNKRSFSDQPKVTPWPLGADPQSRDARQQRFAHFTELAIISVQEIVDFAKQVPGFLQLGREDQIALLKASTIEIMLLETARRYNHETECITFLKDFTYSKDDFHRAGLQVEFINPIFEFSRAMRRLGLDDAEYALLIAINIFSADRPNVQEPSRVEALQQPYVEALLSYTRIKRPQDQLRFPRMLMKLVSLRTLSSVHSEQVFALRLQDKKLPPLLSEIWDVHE

[2] = target: Oxysterols receptor LXR-beta (Homo sapiens, UniProt P55055); experiment: Agonist activity at LXRbeta ligand-binding domain (unknown origin) incubated for 1.5 hrs using fluorescein-labeled coactivator peptide by TR-FRET competitive binding assay
[3] = target: T2, Peroxisome proliferator-activated receptor gamma (Homo sapiens) (UniProt P37231); experiment: Agonist activity at GAL4-tagged PPARgamma (unknown origin) expressed in HEK293 cells co-expressing CMX-beta-galactosidase at 0.3 to 30 uM incubated for 16 hrs by luciferase reporter gene assay; type: cell-based
T2 sequence (whole entry): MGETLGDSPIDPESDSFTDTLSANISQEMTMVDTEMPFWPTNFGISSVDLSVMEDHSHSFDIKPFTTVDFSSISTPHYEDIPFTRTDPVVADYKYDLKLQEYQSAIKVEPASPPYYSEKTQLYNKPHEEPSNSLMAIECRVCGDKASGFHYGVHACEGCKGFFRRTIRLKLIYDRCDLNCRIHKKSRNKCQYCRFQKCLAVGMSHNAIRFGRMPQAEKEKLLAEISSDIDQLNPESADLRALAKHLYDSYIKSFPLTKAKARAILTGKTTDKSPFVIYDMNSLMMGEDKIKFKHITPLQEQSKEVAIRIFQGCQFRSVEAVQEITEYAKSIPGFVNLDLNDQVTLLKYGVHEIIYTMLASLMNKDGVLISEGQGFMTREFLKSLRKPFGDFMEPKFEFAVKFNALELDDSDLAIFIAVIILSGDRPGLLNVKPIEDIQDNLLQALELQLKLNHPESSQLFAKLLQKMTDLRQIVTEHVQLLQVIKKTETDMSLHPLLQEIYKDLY

[4] = target: T3, Oxysterols receptor LXR-beta (Homo sapiens, UniProt P55055); experiment: Agonist activity at human LXRbeta expressed in HEK293 cells co-expressing CMX-beta-galactosidase incubated for 16 hrs by luciferase reporter gene assay; type: cell-based
T3 sequence (P55055 whole entry): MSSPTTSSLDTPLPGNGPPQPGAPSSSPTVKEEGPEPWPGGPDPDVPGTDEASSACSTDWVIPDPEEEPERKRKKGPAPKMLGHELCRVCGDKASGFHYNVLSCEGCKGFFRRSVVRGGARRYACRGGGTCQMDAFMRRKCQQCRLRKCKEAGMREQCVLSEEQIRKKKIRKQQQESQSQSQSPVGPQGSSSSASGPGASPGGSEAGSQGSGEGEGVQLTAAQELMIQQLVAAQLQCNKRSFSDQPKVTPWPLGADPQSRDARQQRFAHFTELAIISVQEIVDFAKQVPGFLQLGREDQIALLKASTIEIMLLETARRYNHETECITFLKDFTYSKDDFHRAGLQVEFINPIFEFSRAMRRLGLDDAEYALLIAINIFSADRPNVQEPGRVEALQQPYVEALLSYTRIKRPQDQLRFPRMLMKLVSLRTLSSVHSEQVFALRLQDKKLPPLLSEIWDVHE

[5] = target: T4, Oxysterols receptor LXR-alpha (Homo sapiens) (UniProt Q13133); experiment: Agonist activity at human LXRalpha expressed in HEK293 cells co-expressing CMX-beta-galactosidase at 30 uM incubated for 16 hrs by luciferase reporter gene assay; type: cell-based
T4 sequence (whole entry): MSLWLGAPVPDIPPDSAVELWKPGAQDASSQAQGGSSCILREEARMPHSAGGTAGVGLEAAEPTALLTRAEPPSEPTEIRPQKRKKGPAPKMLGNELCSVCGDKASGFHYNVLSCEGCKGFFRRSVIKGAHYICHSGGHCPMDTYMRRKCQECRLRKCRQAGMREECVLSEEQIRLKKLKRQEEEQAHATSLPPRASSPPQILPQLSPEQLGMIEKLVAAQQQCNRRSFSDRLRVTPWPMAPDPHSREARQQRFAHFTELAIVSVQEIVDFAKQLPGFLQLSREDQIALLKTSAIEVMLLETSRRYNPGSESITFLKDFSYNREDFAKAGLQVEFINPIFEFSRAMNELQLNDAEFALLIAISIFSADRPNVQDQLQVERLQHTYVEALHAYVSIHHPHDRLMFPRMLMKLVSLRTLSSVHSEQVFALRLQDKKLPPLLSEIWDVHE

[6] = target: T5, Retinoic acid receptor beta (Homo sapiens) (UniProt P10826); experiment: Agonist activity at GAL4-tagged RARbeta (unknown origin) expressed in HEK293 cells co-expressing CMX-beta-galactosidase at 0.3 to 30 uM incubated for 16 hrs by luciferase reporter gene assay; type: cell-based
T5 sequence (whole entry): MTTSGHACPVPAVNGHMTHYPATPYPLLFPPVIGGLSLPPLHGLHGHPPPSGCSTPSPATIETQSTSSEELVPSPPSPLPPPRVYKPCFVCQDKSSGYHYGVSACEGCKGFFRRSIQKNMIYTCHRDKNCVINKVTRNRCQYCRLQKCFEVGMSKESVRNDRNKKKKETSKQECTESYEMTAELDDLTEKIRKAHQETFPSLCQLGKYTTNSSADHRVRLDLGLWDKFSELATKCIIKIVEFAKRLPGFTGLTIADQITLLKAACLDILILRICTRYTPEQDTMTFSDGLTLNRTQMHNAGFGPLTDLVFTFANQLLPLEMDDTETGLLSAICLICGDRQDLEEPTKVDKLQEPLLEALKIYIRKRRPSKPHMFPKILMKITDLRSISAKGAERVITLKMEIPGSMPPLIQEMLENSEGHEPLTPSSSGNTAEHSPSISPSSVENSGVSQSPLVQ

O=C1c2c(Cl)c(Cl)c(Cl)c(Cl)c2C(=O)N1c1ccccc1/C=C/c1cccs1
EC50 [1]: 790 nM | Activity [2]: Dose-dependent effect | Activity [3]: inactive | EC50 [4]: 559 nM | Activity [5]: inactive | Activity [6]: inactive

— ChEMBL document CHEMBL4184249, “Structural development of tetrachlorophthalimides as liver X receptor β (LXRβ)-selective agonists with improved aqueous solubility” (Bioorg Med Chem Lett, 2018)
